The values below come from paper PMC8813842 (Clinical Pharmacokinetics, 2021).

Structures are written as SMILES. Entries after “also recorded” stand apart in the source; their conditions may differ.

Data set [1] concerns the target xanthine oxidase (XO) (Homo sapiens, UniProt P47989). As to conditions: in the first 24 h after birth.
The nature of data set [2]: Population PK of allopurinol and oxypurinol in HIE neonates. Format: in vivo, human. As to conditions: for Patients reaching the predefined AUC12 target: ALBINO study; for AUC: human, plasma, intravenous, 20 mg/kg; for Difference in CL between males and females: sex as covariate on CL; for Difference in CL between TH and non-TH patients: therapeutic hypothermia as categorical covariate on CL.

The conditions of data set [3]: renal, URAT1 most important transporter; cited from earlier work.

Sequence of xanthine oxidase (XO) (P47989 whole entry): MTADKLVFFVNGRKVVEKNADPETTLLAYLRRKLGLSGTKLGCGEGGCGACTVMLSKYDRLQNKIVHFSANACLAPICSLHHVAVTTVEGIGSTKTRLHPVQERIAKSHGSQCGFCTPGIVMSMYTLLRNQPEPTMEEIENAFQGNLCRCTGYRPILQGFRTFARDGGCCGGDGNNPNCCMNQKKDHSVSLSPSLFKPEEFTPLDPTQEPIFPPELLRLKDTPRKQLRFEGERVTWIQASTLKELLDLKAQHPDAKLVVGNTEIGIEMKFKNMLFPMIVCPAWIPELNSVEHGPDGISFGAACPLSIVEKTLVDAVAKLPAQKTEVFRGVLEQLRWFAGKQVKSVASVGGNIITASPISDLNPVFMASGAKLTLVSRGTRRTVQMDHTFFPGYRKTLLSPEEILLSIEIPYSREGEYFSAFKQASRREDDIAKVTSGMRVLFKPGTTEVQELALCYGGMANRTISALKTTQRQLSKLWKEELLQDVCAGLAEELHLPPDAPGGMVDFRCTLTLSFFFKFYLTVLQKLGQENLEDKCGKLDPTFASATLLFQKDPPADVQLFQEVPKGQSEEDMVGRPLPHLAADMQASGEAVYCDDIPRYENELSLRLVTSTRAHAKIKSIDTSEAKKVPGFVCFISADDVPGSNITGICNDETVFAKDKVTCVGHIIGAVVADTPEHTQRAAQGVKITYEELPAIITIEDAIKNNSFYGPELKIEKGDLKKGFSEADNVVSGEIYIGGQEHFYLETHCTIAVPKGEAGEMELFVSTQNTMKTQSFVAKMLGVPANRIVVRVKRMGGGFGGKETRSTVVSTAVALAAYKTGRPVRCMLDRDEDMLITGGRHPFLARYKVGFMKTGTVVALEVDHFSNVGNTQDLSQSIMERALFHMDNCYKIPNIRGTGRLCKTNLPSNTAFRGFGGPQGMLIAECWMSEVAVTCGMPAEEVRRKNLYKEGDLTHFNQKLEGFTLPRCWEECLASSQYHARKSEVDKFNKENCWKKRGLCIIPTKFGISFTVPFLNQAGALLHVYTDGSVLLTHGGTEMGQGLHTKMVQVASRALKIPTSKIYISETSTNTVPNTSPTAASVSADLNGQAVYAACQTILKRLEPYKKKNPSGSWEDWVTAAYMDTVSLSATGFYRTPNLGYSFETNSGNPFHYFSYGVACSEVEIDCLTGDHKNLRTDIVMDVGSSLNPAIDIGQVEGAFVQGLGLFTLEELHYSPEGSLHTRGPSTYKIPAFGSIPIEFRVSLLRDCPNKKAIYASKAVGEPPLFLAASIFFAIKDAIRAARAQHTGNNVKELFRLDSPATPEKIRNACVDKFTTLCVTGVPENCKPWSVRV

`Oc1ncnc2[nH]ncc12` [allopurinol]: the “Decrease of estimated allopurinol CL due to autoinhibition” value in data set [1] is reported as 70%. For the same compound, the “Patients reaching the predefined AUC12 target” value in data set [2] (TH group) came to 92%. The “Patients reaching the predefined AUC12 target” value in data set [2] (non-TH group) was “all patients reached the targets”. Besides, in data set [2], the AUC stood at 160000 ± 62600 ng·h/mL; the “Difference in CL between males and females” value is given as “No significant difference”; the “Difference in CL between TH and non-TH patients” value was “No difference; also recorded: no significant differences; also recorded: not significantly different; also recorded: Clearances of allopurinol and oxypurinol were not significantly different between TH and non-TH patients”.
For the compound `O=c1[nH]c(=O)c2c[nH]nc2[nH]1` [oxypurinol], in data set [3], the “Glomerular filtered oxypurinol actively reabsorbed” value is listed as “approximately 80%”. The “Patients reaching the predefined AUC12 target” value in data set [2] (TH group) stood at 61%. Further, in data set [2] (non-TH group), the “Patients reaching the predefined AUC12 target” value is on record as “all patients reached the targets”. For the same compound, in data set [2], the AUC turned out to be 37400 ± 12800 ng·h/mL; the “Difference in CL between males and females” value is listed as “No significant difference”; the “Difference in CL between TH and non-TH patients” value is “No difference; also recorded: no significant differences; also recorded: not significantly different; also recorded: Clearances of allopurinol and oxypurinol were not significantly different between TH and non-TH patients”.

Usually AUC stands for concentration integrated over time. The low end stands for low exposure, the high end for high exposure.
